According to ChEMBL document CHEMBL4507317, “Data for DCP probe BAY-899” (2021):

Columns and labels:
[1] = target: Fibroblast growth factor receptor 4 (Homo sapiens) (UniProt P22455); conditions: Compound concentration 1000.0 nM
[2] = target: SRSF protein kinase 3 (Homo sapiens) (UniProt Q9UPE1); conditions: Compound concentration 1000.0 nM
[3] = target: Protein kinase C eta type (Homo sapiens) (UniProt P24723); conditions: Compound concentration 1000.0 nM
[4] = target: Ankyrin repeat and protein kinase domain-containing protein 1 (Homo sapiens) (UniProt Q8NFD2); conditions: Compound concentration 1000.0 nM
[5] = system: eIF-2-alpha kinase GCN2 (Homo sapiens), Q9P2K8 [S808G]; conditions: Compound concentration 1000.0 nM
[6] = target: Myosin light chain kinase 2, skeletal/cardiac muscle (Homo sapiens) (UniProt Q9H1R3); conditions: Compound concentration 1000.0 nM
[7] = target: MAP kinase-activated protein kinase 5 (Homo sapiens) (UniProt Q8IW41); conditions: Compound concentration 1000.0 nM
[8] = system: Phosphatidylinositol 4,5-bisphosphate 3-kinase catalytic subunit alpha isoform (Homo sapiens), P42336 [Q546K]; conditions: Compound concentration 1000.0 nM
[9] = target: Serine/threonine-protein kinase BRSK2 (Homo sapiens) (UniProt Q8IWQ3); conditions: Compound concentration 1000.0 nM
[10] = target: Serine/threonine-protein kinase PLK2 (Homo sapiens) (UniProt Q9NYY3); conditions: Compound concentration 1000.0 nM
[11] = target: SRSF protein kinase 2 (Homo sapiens) (UniProt P78362); conditions: Compound concentration 1000.0 nM
[12] = target: Activin receptor type-1B (Homo sapiens) (UniProt P36896); conditions: Compound concentration 1000.0 nM
[13] = target: Serine/threonine-protein kinase NLK (Homo sapiens) (UniProt Q9UBE8); conditions: Compound concentration 1000.0 nM
[14] = target: Cyclin-dependent kinase 11A (Homo sapiens) (UniProt Q9UQ88); conditions: Compound concentration 1000.0 nM
[15] = target: Serine/threonine-protein kinase ICK (Homo sapiens) (UniProt Q9UPZ9); conditions: Compound concentration 1000.0 nM
[16] = target: Serine/threonine-protein kinase 38 (Homo sapiens) (UniProt Q15208); conditions: Compound concentration 1000.0 nM
[17] = target: Cyclin-dependent kinase 17 (Homo sapiens) (UniProt Q00537); conditions: Compound concentration 1000.0 nM
[18] = target: Serine/threonine-protein kinase STK11 (Homo sapiens) (UniProt Q15831); conditions: Compound concentration 1000.0 nM
[19] = target: Vascular endothelial growth factor receptor 1 (Homo sapiens) (UniProt P17948); conditions: Compound concentration 1000.0 nM
[20] = target: Dual specificity mitogen-activated protein kinase kinase 4 (Homo sapiens) (UniProt P45985); conditions: Compound concentration 1000.0 nM
[21] = target: Mitogen-activated protein kinase kinase kinase 13 (Homo sapiens) (UniProt O43283); conditions: Compound concentration 1000.0 nM
[22] = target: Serine/threonine-protein kinase 3 (Homo sapiens) (UniProt Q13188); conditions: Compound concentration 1000.0 nM
[23] = target: Bone morphogenetic protein receptor type-2 (Homo sapiens) (UniProt Q13873); conditions: Compound concentration 1000.0 nM
[24] = target: Ribosomal protein S6 kinase alpha-4 (Homo sapiens) (UniProt O75676); conditions: Compound concentration 1000.0 nM
[25] = target: Serine/threonine-protein kinase LATS1 (Homo sapiens) (UniProt O95835); conditions: Compound concentration 1000.0 nM
[26] = target: Mitogen-activated protein kinase kinase kinase kinase 2 (Homo sapiens) (UniProt Q12851); conditions: Compound concentration 1000.0 nM
[27] = target: Calcium/calmodulin-dependent protein kinase type II subunit beta (Homo sapiens) (UniProt Q13554); conditions: Compound concentration 1000.0 nM
[28] = system: Receptor-type tyrosine-protein kinase FLT3 (Homo sapiens), P36888 [D835V]; conditions: Compound concentration 1000.0 nM
[29] = target: Protein-tyrosine kinase 6 (Homo sapiens) (UniProt Q13882); conditions: Compound concentration 1000.0 nM
[30] = system: Tyrosine-protein kinase ABL1 (Homo sapiens), P00519 [Q252H]; conditions: Compound concentration 1000.0 nM
[31] = target: Non-receptor tyrosine-protein kinase TYK2 (Homo sapiens) (UniProt P29597); conditions: Compound concentration 1000.0 nM
[32] = target: Rhodopsin kinase GRK7 (Homo sapiens) (UniProt Q8WTQ7); conditions: Compound concentration 1000.0 nM
[33] = target: Cyclin-dependent kinase 4 (Homo sapiens) (UniProt P11802); conditions: Compound concentration 1000.0 nM
[34] = target: Mitogen-activated protein kinase kinase kinase 14 (Homo sapiens) (UniProt Q99558); conditions: Compound concentration 1000.0 nM
[35] = system: Receptor-type tyrosine-protein kinase FLT3 (Homo sapiens), P36888 [D835H]; conditions: Compound concentration 1000.0 nM
[36] = target: Mitogen-activated protein kinase kinase kinase kinase 3 (Homo sapiens) (UniProt Q8IVH8); conditions: Compound concentration 1000.0 nM
[37] = target: Calcium/calmodulin-dependent protein kinase type II subunit alpha (Homo sapiens) (UniProt Q9UQM7); conditions: Compound concentration 1000.0 nM
[38] = target: AP2-associated protein kinase 1 (Homo sapiens) (UniProt Q2M2I8); conditions: Compound concentration 1000.0 nM
[39] = target: Atypical kinase COQ8A, mitochondrial (Homo sapiens) (UniProt Q8NI60); conditions: Compound concentration 1000.0 nM
[40] = target: Calcium-dependent protein kinase 1 (Plasmodium falciparum) (UniProt P62344); conditions: Compound concentration 1000.0 nM
[41] = target: Tyrosine-protein kinase Yes (Homo sapiens) (UniProt P07947); conditions: Compound concentration 1000.0 nM
[42] = target: Fibroblast growth factor receptor 1 (Homo sapiens) (UniProt P11362); conditions: Compound concentration 1000.0 nM
[43] = target: GABA-A receptor; anion channel (Rattus norvegicus) (UniProt O09028+P15431+P18506+P18508+P19969+P20236+P23574+P23576+P28471+P28473+P30191+P62813+P63079+P63138+Q91ZM7+Q9ES14); conditions: Compound concentration 10.0 uM
[44] = target: Serine/threonine-protein kinase Nek5 (Homo sapiens) (UniProt Q6P3R8); conditions: Compound concentration 1000.0 nM

Chain of Phosphatidylinositol 4,5-bisphosphate 3-kinase catalytic subunit alpha isoform (Homo sapiens), P42336 [Q546K] (P42336 whole entry Q546K, canonical isoform): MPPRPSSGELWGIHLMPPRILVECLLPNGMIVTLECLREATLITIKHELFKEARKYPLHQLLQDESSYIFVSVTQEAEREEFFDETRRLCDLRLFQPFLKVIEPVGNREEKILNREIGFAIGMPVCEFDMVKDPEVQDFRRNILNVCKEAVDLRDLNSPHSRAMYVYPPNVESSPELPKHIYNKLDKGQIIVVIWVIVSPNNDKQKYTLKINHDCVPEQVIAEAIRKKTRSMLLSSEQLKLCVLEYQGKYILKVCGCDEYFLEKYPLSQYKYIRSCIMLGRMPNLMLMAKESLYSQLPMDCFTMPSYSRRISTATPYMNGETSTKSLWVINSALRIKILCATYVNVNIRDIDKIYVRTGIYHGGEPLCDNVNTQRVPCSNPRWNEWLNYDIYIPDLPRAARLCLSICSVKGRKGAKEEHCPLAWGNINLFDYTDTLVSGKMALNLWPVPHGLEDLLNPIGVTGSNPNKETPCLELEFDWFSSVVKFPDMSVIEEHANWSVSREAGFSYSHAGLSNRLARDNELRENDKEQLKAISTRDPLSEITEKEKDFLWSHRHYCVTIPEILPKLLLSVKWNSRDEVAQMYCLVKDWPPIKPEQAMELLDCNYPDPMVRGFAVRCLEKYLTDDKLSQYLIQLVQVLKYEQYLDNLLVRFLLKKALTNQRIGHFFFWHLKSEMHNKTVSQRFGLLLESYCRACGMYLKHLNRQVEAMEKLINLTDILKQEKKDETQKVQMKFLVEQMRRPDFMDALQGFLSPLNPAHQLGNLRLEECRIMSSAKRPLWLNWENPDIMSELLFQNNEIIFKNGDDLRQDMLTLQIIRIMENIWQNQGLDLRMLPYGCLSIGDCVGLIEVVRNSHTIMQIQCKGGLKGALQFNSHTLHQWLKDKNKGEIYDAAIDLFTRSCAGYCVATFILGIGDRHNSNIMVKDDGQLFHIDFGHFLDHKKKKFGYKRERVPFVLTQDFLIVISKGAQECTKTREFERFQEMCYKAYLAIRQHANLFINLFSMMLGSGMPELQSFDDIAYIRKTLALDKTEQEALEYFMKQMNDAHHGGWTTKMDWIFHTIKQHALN
Chain of Fibroblast growth factor receptor 4 (Homo sapiens) (P22455 22-802 limits assumed): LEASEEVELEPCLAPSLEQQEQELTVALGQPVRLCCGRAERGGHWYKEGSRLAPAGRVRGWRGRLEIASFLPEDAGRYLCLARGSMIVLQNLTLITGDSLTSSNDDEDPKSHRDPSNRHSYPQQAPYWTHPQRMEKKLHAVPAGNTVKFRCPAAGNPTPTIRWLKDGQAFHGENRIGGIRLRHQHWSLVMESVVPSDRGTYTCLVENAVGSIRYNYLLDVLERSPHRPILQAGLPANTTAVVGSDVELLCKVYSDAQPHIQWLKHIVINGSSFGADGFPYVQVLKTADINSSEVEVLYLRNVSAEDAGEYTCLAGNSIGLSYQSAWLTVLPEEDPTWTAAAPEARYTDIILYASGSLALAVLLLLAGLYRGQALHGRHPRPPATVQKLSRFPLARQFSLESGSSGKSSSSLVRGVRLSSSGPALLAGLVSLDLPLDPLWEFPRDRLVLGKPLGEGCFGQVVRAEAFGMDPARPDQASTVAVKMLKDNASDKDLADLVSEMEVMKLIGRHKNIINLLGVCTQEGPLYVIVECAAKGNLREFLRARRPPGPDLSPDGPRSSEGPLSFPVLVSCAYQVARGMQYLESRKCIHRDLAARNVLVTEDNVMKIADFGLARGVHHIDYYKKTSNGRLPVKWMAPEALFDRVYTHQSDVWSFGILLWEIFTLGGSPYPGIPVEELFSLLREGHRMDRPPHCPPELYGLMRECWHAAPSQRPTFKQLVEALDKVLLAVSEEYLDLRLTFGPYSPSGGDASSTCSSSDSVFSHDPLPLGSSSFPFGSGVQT
Chain of Serine/threonine-protein kinase NLK (Homo sapiens) (Q9UBE8 whole entry): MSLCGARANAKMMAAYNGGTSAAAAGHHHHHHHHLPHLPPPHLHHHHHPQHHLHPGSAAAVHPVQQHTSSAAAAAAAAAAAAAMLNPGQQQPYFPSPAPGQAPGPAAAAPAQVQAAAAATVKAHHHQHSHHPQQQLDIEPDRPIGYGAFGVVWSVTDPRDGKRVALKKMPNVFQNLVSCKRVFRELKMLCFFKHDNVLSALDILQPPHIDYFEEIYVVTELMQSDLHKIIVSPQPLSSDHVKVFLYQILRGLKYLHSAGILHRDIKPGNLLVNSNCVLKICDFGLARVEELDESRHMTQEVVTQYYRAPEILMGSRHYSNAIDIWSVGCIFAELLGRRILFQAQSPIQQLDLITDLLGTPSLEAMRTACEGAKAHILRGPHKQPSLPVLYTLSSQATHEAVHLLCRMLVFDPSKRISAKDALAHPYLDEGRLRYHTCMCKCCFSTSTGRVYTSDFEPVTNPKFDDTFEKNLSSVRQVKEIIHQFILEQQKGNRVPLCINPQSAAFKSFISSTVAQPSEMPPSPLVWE
Chain of Serine/threonine-protein kinase PLK2 (Homo sapiens) (Q9NYY3 whole entry, looked up): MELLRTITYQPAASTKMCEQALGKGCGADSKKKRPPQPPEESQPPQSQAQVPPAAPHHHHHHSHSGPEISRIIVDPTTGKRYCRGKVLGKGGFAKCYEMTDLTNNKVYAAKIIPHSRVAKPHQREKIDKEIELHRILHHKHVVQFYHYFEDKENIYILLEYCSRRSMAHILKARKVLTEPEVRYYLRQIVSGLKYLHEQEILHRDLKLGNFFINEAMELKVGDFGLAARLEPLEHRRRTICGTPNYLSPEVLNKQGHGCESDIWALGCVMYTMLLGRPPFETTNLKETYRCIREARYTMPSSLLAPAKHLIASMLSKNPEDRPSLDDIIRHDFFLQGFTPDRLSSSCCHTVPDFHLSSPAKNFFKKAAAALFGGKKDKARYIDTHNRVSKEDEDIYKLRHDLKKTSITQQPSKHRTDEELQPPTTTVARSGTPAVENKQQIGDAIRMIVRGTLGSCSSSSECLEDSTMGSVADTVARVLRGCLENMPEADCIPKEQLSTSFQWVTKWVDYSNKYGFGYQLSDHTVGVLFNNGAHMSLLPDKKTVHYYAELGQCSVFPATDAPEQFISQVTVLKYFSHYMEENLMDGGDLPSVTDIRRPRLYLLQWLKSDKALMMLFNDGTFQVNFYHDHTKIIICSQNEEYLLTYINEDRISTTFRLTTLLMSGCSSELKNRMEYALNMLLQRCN
Chain of Protein kinase C eta type (Homo sapiens) (P24723 whole entry, the tested form may be a part): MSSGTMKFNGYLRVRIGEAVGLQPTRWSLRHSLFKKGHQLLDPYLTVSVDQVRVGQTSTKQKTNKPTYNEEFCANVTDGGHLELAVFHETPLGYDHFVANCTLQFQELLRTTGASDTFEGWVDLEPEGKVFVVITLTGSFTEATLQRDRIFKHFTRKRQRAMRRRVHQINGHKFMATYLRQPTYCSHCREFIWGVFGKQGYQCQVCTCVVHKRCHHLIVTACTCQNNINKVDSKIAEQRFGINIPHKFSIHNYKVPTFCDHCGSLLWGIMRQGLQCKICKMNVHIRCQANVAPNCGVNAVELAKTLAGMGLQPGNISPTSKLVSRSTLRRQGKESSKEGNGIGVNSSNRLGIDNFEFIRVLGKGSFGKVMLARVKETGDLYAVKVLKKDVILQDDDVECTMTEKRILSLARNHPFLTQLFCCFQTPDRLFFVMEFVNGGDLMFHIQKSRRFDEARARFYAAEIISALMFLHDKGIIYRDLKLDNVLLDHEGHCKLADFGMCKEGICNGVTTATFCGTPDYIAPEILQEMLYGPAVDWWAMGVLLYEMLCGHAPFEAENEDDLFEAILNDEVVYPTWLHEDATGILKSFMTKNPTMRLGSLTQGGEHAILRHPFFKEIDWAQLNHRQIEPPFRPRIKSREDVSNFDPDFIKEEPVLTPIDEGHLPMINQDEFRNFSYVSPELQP
Chain of Activin receptor type-1B (Homo sapiens) (P36896 whole entry): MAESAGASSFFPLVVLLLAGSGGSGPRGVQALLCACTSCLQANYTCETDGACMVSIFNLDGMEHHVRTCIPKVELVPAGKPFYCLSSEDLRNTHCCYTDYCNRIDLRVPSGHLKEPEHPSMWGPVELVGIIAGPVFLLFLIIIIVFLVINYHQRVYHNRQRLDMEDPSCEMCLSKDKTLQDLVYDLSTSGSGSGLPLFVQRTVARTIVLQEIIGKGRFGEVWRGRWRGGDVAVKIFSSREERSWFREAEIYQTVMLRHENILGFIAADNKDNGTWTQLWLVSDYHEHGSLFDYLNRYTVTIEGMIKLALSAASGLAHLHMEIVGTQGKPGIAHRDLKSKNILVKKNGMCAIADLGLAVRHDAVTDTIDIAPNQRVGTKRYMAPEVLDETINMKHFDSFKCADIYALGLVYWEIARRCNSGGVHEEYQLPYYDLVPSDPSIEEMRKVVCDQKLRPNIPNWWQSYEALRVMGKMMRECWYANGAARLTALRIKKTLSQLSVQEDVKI
Chain of SRSF protein kinase 2 (Homo sapiens) (P78362 whole entry, looked up): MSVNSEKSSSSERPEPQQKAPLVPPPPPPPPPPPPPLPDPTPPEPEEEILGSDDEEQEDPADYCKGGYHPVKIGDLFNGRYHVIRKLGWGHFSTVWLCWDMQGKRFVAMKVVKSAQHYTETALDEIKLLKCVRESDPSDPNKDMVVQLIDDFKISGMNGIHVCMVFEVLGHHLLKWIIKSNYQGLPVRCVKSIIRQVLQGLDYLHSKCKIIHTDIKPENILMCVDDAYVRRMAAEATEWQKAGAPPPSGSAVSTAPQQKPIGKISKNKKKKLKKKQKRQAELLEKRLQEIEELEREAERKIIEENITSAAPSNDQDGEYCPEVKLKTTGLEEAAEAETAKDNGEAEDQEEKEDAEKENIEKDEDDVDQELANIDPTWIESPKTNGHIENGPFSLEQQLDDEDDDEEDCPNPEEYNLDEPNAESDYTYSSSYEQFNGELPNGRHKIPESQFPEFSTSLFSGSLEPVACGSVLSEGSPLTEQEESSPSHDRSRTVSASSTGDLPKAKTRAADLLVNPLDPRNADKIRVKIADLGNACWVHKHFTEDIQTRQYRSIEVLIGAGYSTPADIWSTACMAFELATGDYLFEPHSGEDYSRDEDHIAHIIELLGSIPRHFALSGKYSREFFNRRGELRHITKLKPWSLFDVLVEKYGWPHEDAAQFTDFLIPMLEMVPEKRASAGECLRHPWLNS

O=C(Nc1cnc(Oc2ccc(F)cc2)nc1)N1CCc2ncccc2[C@@H]1c1ccc(F)cc1 [BAY-899]
inactive: residual activity [1] 98% | residual activity [2] 100% | residual activity [3] 76% | residual activity [4] 100% | residual activity [5] 85% | residual activity [6] 90% | residual activity [7] 91% | residual activity [8] 95% | residual activity [9] 89% | residual activity [10] 100% | residual activity [11] 100% | residual activity [12] 100% | residual activity [13] 73% | residual activity [14] 91% | residual activity [15] 92% | residual activity [16] 91% | residual activity [17] 97% | residual activity [18] 75% | residual activity [19] 88% | residual activity [20] 100% | residual activity [21] 88% | residual activity [22] 100% | residual activity [23] 88% | residual activity [24] 89% | residual activity [25] 100% | residual activity [26] 100% | residual activity [27] 92% | residual activity [28] 100% | residual activity [29] 98% | residual activity [30] 100% | residual activity [31] 100% | residual activity [32] 100% | residual activity [33] 100% | residual activity [34] 100% | residual activity [35] 100% | residual activity [36] 87% | residual activity [37] 92% | residual activity [38] 91% | residual activity [39] 95% | residual activity [40] 95% | residual activity [41] 98% | residual activity [42] 82% | inhibition [43] 19.4% | residual activity [44] 90%

O=C(Nc1ccc(Oc2ccc(F)cc2)cc1)N1CCc2ncccc2[C@H]1c1ccc(F)cc1 [BAY-897]
inactive: residual activity [1] 95% | residual activity [2] 100% | residual activity [3] 93% | residual activity [4] 92% | residual activity [5] 100% | residual activity [6] 100% | residual activity [7] 75% | residual activity [8] 75% | residual activity [9] 95% | residual activity [10] 100% | residual activity [11] 100% | residual activity [12] 94% | residual activity [13] 87% | residual activity [14] 92% | residual activity [15] 76% | residual activity [16] 99% | residual activity [17] 96% | residual activity [18] 61% | residual activity [19] 100% | residual activity [20] 86% | residual activity [21] 98% | residual activity [22] 94% | residual activity [23] 96% | residual activity [24] 73% | residual activity [25] 86% | residual activity [26] 95% | residual activity [27] 100% | residual activity [28] 96% | residual activity [29] 100% | residual activity [30] 88% | residual activity [31] 100% | residual activity [32] 100% | residual activity [33] 100% | residual activity [34] 61% | residual activity [35] 86% | residual activity [36] 90% | residual activity [37] 88% | residual activity [38] 95% | residual activity [39] 100% | residual activity [40] 96% | residual activity [41] 100% | residual activity [42] 100% | inhibition [43] 26.9% | residual activity [44] 96%
